For data set [1], the system named is serum ALT activity induced by CCl4. In words: Protective effect against acute hepatic damage induced by carbon tetrachloride (serum ALT). The format is in vivo. As to conditions: Mus musculus; mice, 50 mg/kg oral, 6 h before CCl4 (50 ul/kg oral); ALT 24 h after CCl4; read-out: Inhibitory (%): protective effect against increase of serum ALT activity induced by CCl4. As for the experimental part: Principle; Carbon tetrachloride (CCl4) is a well-known hepatotoxic agent, thus widely used to produce experimental animal models for screening the potential drugs acting upon hepatic diseases. In this experiment test compounds were administered to mice prior to treatment with CCl4. 24 Hours after the CCl4 treatment, the animals were sacrificed and serum alanine aminotransferase (ALT) levels were determined. The hepatoprotective effect of a test compound was evaluated by the suppressive action against the increase of serum ALT induced by CCl4.
Method; The experimental animals were divided into normal, CCl4 treated and test compound treated groups. Each group consisted of 8 mice with body weight of 20-25 grams. The test compounds were suspended in 0.2% sodium carboxy methyl cellulose (CMC-Na) solution and administered orally at the dose of 50 mg/125 ml/kg body weight. Only the vehicle, 0.2% CMC-Na solution, was administered to the normal and to the CCl4 treated group instead of the test compound suspension. 6 Hours after the drug administration, the CCl4 solution in olive oil was administered orally to the CCl4 treated- and the test compound treated group at the dose of 50 ul/25 ml olive oil/kg body weight. The normal group was administered olive oil only at the same dose. 24 Hours after the CCl4 administration, blood samples were collected from the orbital sinus of the animals and the sera were obtained by centrifugation The serum ALT activities were monitored using an automatic blood analyzer (Gilford, SBA 300). The hepatoprotective effect of the test compounds was expressed by the suppressive percentage against the increase of serum ALT level induced by CCl4 calculated by the following formula; [formula]

Data set [2] can be described thus: Acute oral toxicity, median lethal dose (LD50). As to conditions: mouse, in vivo, male ICR mice, deaths counted for 14 days. As for the experimental part:
Each test compound was suspended in a 0.2% CMC-Na solution in various concentrations to make test suspension. The test suspensions were administered orally to male ICR mice (10 in each group) at various doses. The number of dead mice was counted for 14 days and the value of mediam lethal dose (LD50, g/kg) was calculated by the Hitchifield-Wilcoxon method.

Molecules are shown by their SMILES.

On to `Cc1ccc(NC(=O)C(C(=O)OC(C)C)=C2SC=CS2)cc1` [17(e), Isopropyl 2-(1,3-dithiol-2-ylidene)-2-[N-(4-methylphenyl)carbamoyl]acetate], for which the inhibition in vivo at 50 mg/kg in data set [1] came out at 100%. Still for that read-out and setting: the same measure for `Cc1cccc(NC(=O)C(C(=O)OC(C)C)=C2SC=CS2)c1C` [17(f), Isopropyl 2-(1,3-dithiol-2-ylidene)-2-[N-(2,3-dimethylphenyl)carbamoyl]acetate]: 92%. One may read the LD50 as the dose expected to kill half of the subjects tested. The low end stands for a more toxic substance, the high end for a less toxic substance. `CC(C)OC(=O)C(C(=O)Nc1ccc(Cl)cc1)=C1SC=CS1` [17(g), Isopropyl 2-(1,3-dithiol-2-ylidene)-2-[N-(4-chlorophenyl)carbamoyl]acetate]: the inhibition in vivo at 50 mg/kg in data set [1] was found to be 81.5%. Further, the LD50 at 336 h in data set [2] was greater than 5000 mg/kg. For `CC(C)OC(=O)C(C(=O)Nc1cccc(Cl)c1)=C1SC=CS1` [17(h), Isopropyl 2-(1,3-dithiol-2-ylidene)-2-[N-(3-chlorophenyl)carbamoyl]acetate] the same measures were 97.5% and greater than 5000 mg/kg. For the molecule `CC(C)OC(=O)C(C(=O)Nc1ccc(F)cc1)=C1SC=CS1` [17(i), Isopropyl 2-(1,3-dithiol-2-ylidene)-2-[N-(4-fluorophenyl)carbamoyl]acetate], in data set [1], the inhibition in vivo at 50 mg/kg was determined as 89.8%. Further, the LD50 at 336 h in data set [2] was greater than 5000 mg/kg. In data set [2], `CC(C)OC(=O)C(C(=O)Nc1ccccc1F)=C1SC=CS1` [17(j), Isopropyl 2-(1,3-dithiol-2-ylidene)-2-[N-(2-fluorophenyl)carbamoyl]acetate] yielded an LD50 at 336 h greater than 5000 mg/kg. In the case of `COc1ccc(NC(=O)C(C(=O)OC(C)C)=C2SC=CS2)cc1` [17(l), Isopropyl 2-(1,3-dithiol-2-ylidene)-2-[N-(4-methoxyphenyl)carbamoyl]acetate], the inhibition in vivo at 50 mg/kg in data set [1] is 99.6%. This molecule also yielded an LD50 at 336 h in data set [2] greater than 5000 mg/kg. With `CC(=O)Nc1ccc(NC(=O)C(C(=O)OC(C)C)=C2SC=CS2)cc1` [17(q), Isopropyl 2-(1,3-dithiol-2-ylidene)-2-[N-(4-acetamidophenyl)carbamoyl]acetate], the inhibition in vivo at 50 mg/kg in data set [1] was found to be 78.2%. The LD50 at 336 h in data set [2] was greater than 5000 mg/kg.

For the molecule `CC(=O)Nc1cccc(NC(=O)C(C(=O)OC(C)C)=C2SC=CS2)c1` [17(r), Isopropyl 2-(1,3-dithiol-2-ylidene)-2-[N-(3-acetamidophenyl)carbamoyl]acetate], the inhibition in vivo at 50 mg/kg in data set [1] was determined as 46.6%.

Consider `CC(C)OC(=O)C(C(=O)Nc1ccc(C(F)(F)F)cc1)=C1SC=CS1` [17(s), Isopropyl 2-(1,3-dithiol-2-ylidene)-2-[N-(4-trifluoromethylphenyl)carbamoyl]acetate], for which, in data set [1], the inhibition in vivo at 50 mg/kg is 100%. Further, in data set [2], the LD50 at 336 h was greater than 4000 mg/kg. Take `CC(C)OC(=O)C(C(=O)Nc1cccc(C(F)(F)F)c1)=C1SC=CS1` [17(t), Isopropyl 2-(1,3-dithiol-2-ylidene)-2-[N-(3-trifluoromethylphenyl)carbamoyl]acetate]: the inhibition in vivo at 50 mg/kg in data set [1] worked out at 96%.

Turning to `CC(C)OC(=O)C(C(=O)Nc1ccnc(O)n1)=C1SC=CS1` [18(m)], the inhibition in vivo at 50 mg/kg in data set [1] is 12.8%. This molecule returned an LD50 at 336 h in data set [2] greater than 5000 mg/kg.

Take `CC(C)OC(=O)C(C(=O)Nc1nc2ccccc2s1)=C1SC=CS1` [18(n), Isopropyl 2-(1,3-dithiol-2-ylidene)-2-[N-(2-benzothiazolyl)carbamoyl]acetate]: the inhibition in vivo at 50 mg/kg in data set [1] was found to be 15.2%. In addition, in data set [2], the LD50 at 336 h was greater than 5000 mg/kg. For `Cc1nc(NC(=O)C(C(=O)OC(C)C)=C2SC=CS2)sc1C` [19(f), Isopropyl 2-(1,3-dithiol-2-ylidene)-2-[N-(4,5-dimethyl-2-thiazolyl)carbamoyl]acetate] the same measures were 91.4% and greater than 5000 mg/kg. In the case of `CC(C)OC(=O)C(C(=O)Nc1ncccn1)=C1SC=CS1` [21(d), Isopropyl 2-1,3-dithiol-2-ylidene)-2-(N-pyrimidin-2-ylcarbamoyl) acetate], the inhibition in vivo at 50 mg/kg in data set [1] is 99.8%. In data set [2], this molecule yielded an LD50 at 336 h of 3200 mg/kg.

On to `CC(C)OC(=O)C(C(=O)Nc1cccc(O)c1)=C1SC=CS1` [22(c), Isopropyl 2-(1,3-dithiol-2-ylidene)-2-[N-(3-hydroxyphenyl)carbamoyl]acetate], for which, in data set [1], the inhibition in vivo at 50 mg/kg is 93%. The molecule further showed an LD50 at 336 h in data set [2] greater than 5000 mg/kg.

On to `CC(C)OC(=O)C(C(=O)Nc1ccccc1O)=C1SC=CS1` [22(d), Isopropyl 2-(1,3-dithiol-2-ylidene)-2-[N-(2-hydroxyphenyl)carbamoyl]acetate], for which, in data set [1], the inhibition in vivo at 50 mg/kg was 16.2%. Turning to `CC(C)OC(=O)C(C(=O)NC1=NCCS1)=C1SC=CS1` [22(e), Isopropyl 2-(1,3-dithiol-2-ylidene)-2-[N-(2-thiazolin-2-yl)carbamoyl]acetate], the inhibition in vivo at 50 mg/kg in data set [1] was 99.4%. Also, the LD50 at 336 h in data set [2] is greater than 5000 mg/kg. Take `CC(=O)Oc1ccc(NC(=O)C(C(=O)OC(C)C)=C2SC=CS2)cc1` [24(a), Isopropyl 2-(1,3-dithiol-2-ylidene)-2-[N-(4-acetoxyphenyl)carbamoyl]acetate]: in data set [1], the inhibition in vivo at 50 mg/kg amounted to 102%. Consider `CC(=O)Oc1cccc(NC(=O)C(C(=O)OC(C)C)=C2SC=CS2)c1` [24(b)], for which, in data set [1], the inhibition in vivo at 50 mg/kg was 98%. Besides, the LD50 at 336 h in data set [2] is greater than 5000 mg/kg. Consider `CC(=O)Oc1ccccc1NC(=O)C(C(=O)OC(C)C)=C1SC=CS1` [24(c), Isopropyl 2-(1,3-dithiol-2ylidene)-2-[N-(2-acetoxyphenyl)carbamoyl]acetate], for which the inhibition in vivo at 50 mg/kg in data set [1] was 22.8%. For the molecule `CC(C)OC(=O)C(C(=O)Nc1ccccc1C(=O)O)=C1SC=CS1` [25(a), Isopropyl 2-(1,3-dithiol-2-ylidene)-2-[N-(2-carboxyphenyl)carbamoyl]acetate], the inhibition in vivo at 50 mg/kg in data set [1] amounted to 74%. The same molecule came in with an LD50 at 336 h in data set [2] of 1200 mg/kg. Regarding `CC(C)OC(=O)C(C(=O)N1CCOCC1)=C1SC=CS1` [26(a), Isopropyl 2-(1,3-dithiol-2-ylidene)-2-(4-morpholinylcarbonyl)acetate], the inhibition in vivo at 50 mg/kg in data set [1] was 66.5%. On the same count and under the same terms, the same measure for `CC(C)OC(=O)C(C(=O)N1CCN(C)CC1)=C1SC=CS1` [26(b), Isopropyl 2-(1,3-dithiol-2-ylidene)-2-[(4-methylpiperazin-1-yl)carbonyl]acetate]: 46%; for `CC(C)OC(=O)C(C(=O)N1CCCC1)=C1SC=CS1` [26(c), Isopropyl 2-(1,3-dithiol-2-ylidene)-2-(1-pryrrolidinylcarbaonyl) acetate]: 90.5%; for `CC(C)OC(=O)C(C(=O)n1ccnc1)=C1SC=CS1` [26(d), Isopropyl 2-(1,3-dithiol-2-ylidene)-2-(1-imidazolylcarbaony)acetate]: 98%. Same read-out and setting: with `CC(C)OC(=O)C(C(N)=O)=C1SC=CS1` [Example 9, Isopropyl 2-(1,3-dithiol-2-ylidene)-2-carbamoylacetate] the figure was 65.5%; with `CNC(=O)C(C(=O)OC(C)C)=C1SC=CS1` [Example 10, Isopropyl 2-(1,3-dithiol-2-ylidene)-2-(N-methylcarbamoyl) acetate], 92%.

As for `CC(C)NC(=O)C(C(=O)OC(C)C)=C1SC=CS1` [Example 11, Isopropyl 2-(1,3-dithiol-2-ylidene)-2-(N-isopropylcarbamoyl)acetate], in data set [1], the inhibition in vivo at 50 mg/kg came to 49.4%. In data set [2], the LD50 at 336 h came to 2600 mg/kg.

For `CC(C)OC(=O)C(C(=O)NC1CCCCC1)=C1SC=CS1` [Example 12, Isopropyl 2-(1,3-dithiol-2-ylidene)-2-(N-cyclohexylcarbamoyl)acetate], in data set [1], the inhibition in vivo at 50 mg/kg turned out to be 98%. Still for that read-out and setting: the same measure for `CCN(CC)C(=O)C(C(=O)OC(C)C)=C1SC=CS1` [Example 13, Isopropyl 2-(1,3-dithiol-2-ylidene)-2-(N,N-diethylcarbamoyl) acetate]: 55.6%; for `CC(C)OC(=O)C(C(=O)N1CCCC1C(=O)O)=C1SC=CS1` (stereo not shown) [Example 15, Isopropyl 2-(1,3-dithiol-2-ylidene)-2-[(2-carboxypyrrolidin-1-yl)carbonyl]acetate]: 14%. Still for that read-out and setting: with `CC(C)OC(=O)C(C(=O)N(C)c1ccccc1)=C1SC=CS1` [Example 16, Isopropyl 2-(1,3-dithiol-2-ylidene)-2-(N-methyl-N-phenylcarbamoyl)acetate] the figure was 47.9%.

With `COc1cccc(NC(=O)C(C(=O)OC(C)C)=C2SC=CS2)c1` [Example 17(o), isopropyl 2-(1,3-dithiol-2-ylidene)-2-[N-(3-methoxyphenyl)carbamoyl]acetate], the inhibition in vivo at 50 mg/kg in data set [1] is 100%.

Source of the values: US5158950A, “1,3-dithiol-2-ylidene derivatives and process for the preparation thereof” (Yuhan Corporation, Ltd., priority 1987, dated 1992).
